The target in this test is T1, human MPO (Homo sapiens, UniProt P05164).
T1 sequence (P05164 49-745): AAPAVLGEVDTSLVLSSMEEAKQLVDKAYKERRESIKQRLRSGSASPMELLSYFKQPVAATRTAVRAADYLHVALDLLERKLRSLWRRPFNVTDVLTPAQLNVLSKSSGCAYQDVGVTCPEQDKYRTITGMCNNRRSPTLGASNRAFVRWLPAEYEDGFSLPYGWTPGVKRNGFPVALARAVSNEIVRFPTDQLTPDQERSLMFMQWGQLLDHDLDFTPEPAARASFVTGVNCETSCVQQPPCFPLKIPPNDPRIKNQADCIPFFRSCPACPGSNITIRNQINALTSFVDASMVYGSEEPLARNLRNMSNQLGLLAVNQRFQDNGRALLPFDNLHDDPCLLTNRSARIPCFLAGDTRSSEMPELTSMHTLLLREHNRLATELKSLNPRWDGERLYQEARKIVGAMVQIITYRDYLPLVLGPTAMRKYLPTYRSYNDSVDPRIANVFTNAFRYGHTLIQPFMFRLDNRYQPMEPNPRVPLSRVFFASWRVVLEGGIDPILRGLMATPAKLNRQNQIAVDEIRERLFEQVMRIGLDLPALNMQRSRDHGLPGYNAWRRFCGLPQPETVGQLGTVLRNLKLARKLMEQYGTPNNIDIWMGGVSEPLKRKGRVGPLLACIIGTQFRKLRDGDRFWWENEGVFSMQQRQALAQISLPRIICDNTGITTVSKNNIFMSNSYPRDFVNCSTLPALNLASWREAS
The test can be described thus: MPO inhibition screen (TMB oxidation, absorbance at about 650 nM). The format is biochemical. As to conditions: human MPO 2.5 nM, H2O2 100 μM, assay buffer pH 6.5, room temperature. The procedure: The pharmacological activity of compounds according to the invention was tested in the following screen:
Assay buffer: 20 mM sodium/potassium phosphate buffer pH 6.5 containing 10 mM taurine and 100 mM NaCl.
Then 50 μl of H202 (final concentration 100 μM), or assay buffer alone as a control, were added for 10 minutes at room temperature. […] IC50 values were then determined using standard procedures.

Data on 8 compounds can be found in US8236951B2, “Thioxanthine derivatives as myeloperoxidase inhibitors” (AstraZeneca AB, priority 2002, dated 2012).

As a reminder, the IC50 is the concentration needed to halve the response being measured. Regarding `O=c1[nH]c(=S)n(CCCN2CCOCC2)c2nc[nH]c12` [Example 16, 3-(3-(1-Morpholinyl)-propyl)-2-thioxanthine], the IC50 was determined as 2.94 µM.

Consider `COCCn1c(=S)[nH]c(=O)c2[nH]cnc21` [Example 15, 3-(2-Methoxy-ethyl)-2-thioxanthine], for which inhibition was half-maximal at 0.44 µM (IC50). Compared with the last compound, the IC50 is about 6.7-fold lower.

Compound `O=c1[nH]c(=S)n(CC2CCCCC2)c2nc[nH]c12` [Example 10, 3-Cyclohexylmethyl-2-thioxanthine] returned an IC50 of 0.53 µM.

On to `O=c1[nH]c(=S)n(CCc2ccccc2)c2nc[nH]c12` [Example 20, 3-Phenethyl-2-thioxanthine], for which the midpoint of inhibition, the IC50, lay at 0.96 µM.

In the case of `O=c1[nH]c(=S)n(CC2CCCO2)c2nc[nH]c12` (racemic) [Example 14, 3-(2-Tetrahydrofuryl-methyl)-2-thioxanthine], the IC50 is 0.51 µM.

The compound `CC(C)Cn1c(=S)[nH]c(=O)c2[nH]cnc21` [Example 6, 3-Isobutyl-2-thioxanthine] returned a concentration for half-maximal inhibition (IC50) of 0.87 µM.

`O=c1[nH]c(=S)n(Cc2ccco2)c2nc[nH]c12` [Example 17, 3-(2-Furyl-methyl)-2-thioxanthine]: the IC50 came to 7.57 µM.

`COc1ccc(Cn2c(=S)[nH]c(=O)c3[nH]cnc32)cc1` [Example 18, 3-(4-Methoxybenzyl)-2-thioxanthine] returned an IC50 of 0.49 µM. This IC50 is about 15-fold lower than that of the compound before.
